Measurements: patent US20090005424A9, “Composition and Method for Treating Fibrotic Diseases” (priority 2005, published 2009)
Marks after values point to notes of the source that are not given here.

What was measured:
[1] = test system: Human Peritoneal Mesothelial Cells; experiment: MTT proliferation assay, human peritoneal mesothelial cells; type: cell-based
Method: (§1) In the following examples, myocardiac fibroblasts, skin scar forming fibroblast and human peritoneal mesothelial cells are primary cultures prepared according to common procedure. Other cells are commercially purchased. 1-(3-fluorophenyl)-5-methyl-2(1H)-pyridone (AKF-PD) is prepared as a suspension in 5% carboxymethylcellulose.
(§2) Cell proliferation was measured by MTT assay. DMEM with 10% fetal serum was used as cell culture medium. The cells were prepared in suspension (1×10^5/ml), and 100 μL of the suspension was transferred to each well of a 96 wells plate. Once the cells were attached to the plastic, the culture was changed to serum free medium and incubated for another 24 hours. Then, the serum free medium was aspirated, and various concentrations of 1-(3′-fluorophenyl)-5-methyl-2(1H)-pyridone (AKF-PD) or PIRFENIDONE (PFD) in 10% serum medium were added into each well with 5 replicates for each concentration. The cells were stained with MTT (10 μL per well) at 12, 22, or 48 hours post drug treatment. After 4 hrs of incubation, the medium with MTT was aspirated from each well. One hundred μL MTT solvent was added to each well for 15 min, and the dissolved MTT was measured with a plate reader at 570 nm.

[2] = test system: Kidney Fibroblast; experiment: MTT proliferation assay, mouse kidney fibroblast; type: cell-based; conditions: for order of inhibitory effect: kidney fibroblast
Method: Cell proliferation was measured by MTT assay. DMEM with 10% fetal serum was used as cell culture medium. The cells were prepared in suspension (1×10^5/ml), and 100 μL of the suspension was transferred to each well of a 96 wells plate. Once the cells were attached to the plastic, the culture was changed to serum free medium and continued for another 24 hours. The serum free medium was aspirated, and various concentrations of 1-(3′-fluorophenyl)-5-methyl-2(1H)-pyridone (AKF-PD) 1-(3′-bromophenyl)-5-methyl-2(1H)-pyridone (AKF-BR) or PIRFENIDONE (PFD) in 10% serum medium were added into each well with 5 replicates for each concentration. The cells were stained with MTT (10 μL per well) at 24, 48, and 72 hours post drug treatment. After 4 hrs of incubation, the medium with MTT was aspirated from each well. One hundred μL MTT solvent was added to each well for 15 min. The dissolved MTT was then measured with a plate reader at 570 nm.

[3] = test system: Rat Myocardiac Fibroblasts; experiment: MTT proliferation assay, rat myocardiac fibroblasts; type: cell-based
Method: as §1
as §2, with “24,” for “22,”

[4] = test system: ICR mice injected with bleomycin; experiment: Bleomycin-induced mouse pulmonary fibrosis, histological score of lung tissue; type: in vivo; conditions: AKF-PD and PFD 500 mg/kg, captopril 12.5 mg/kg by gavage day 1 to 28, Szapiel's method
Method: Under regular care condition, 7-10 weeks old, male, institute of cancer research (ICR) mice, weight 28-39 g, were randomly grouped as normal control, disease, disease/AKF-PD, disease/PFD and disease Captopril group.
Control group was injected with normal saline once day from day 2 to 15 days. Disease, disease/AKF-PD, disease/PFD and disease/captopril groups were injected with bleomycin once day from day 2 to 15. Control and disease groups were given 0.5% CMC by gavage once a day from day 1 to day 28. 500 mg/kg of AKF-PD CMC suspension and PD CMC suspension and 12.5 mg/kg captopril in saline were administered to respective groups by gavage once day from day 1 to day 28. All animals were sacrificed on day 29 and their lungs were removed for pathological (HE staining) examination.
Histological scoring for the lung tissue was done according Szapiel's method.

[5] = Acute oral toxicity in Kun Ming mice, LD50 by Bliss method; conditions: both sexes, Kun Ming (KM), mouse, in vivo, po
Method: Male and female Kun Ming (KM) mice weighing between 18 g-22 g were acquired from the animal facility of Hsiang-Ya Medical College, the Central South University. Fifty Kun Ming mice were randomly assigned into 5 groups with 5 male and 5 female mice for each group. The animals went through fasting with a normal water supply before starting drug treatment (either AKF-PD or PIRFENIDONE). The drug was administrated orally by gavage. The volume of liquid drug was 20 ml/kg body weight. The range of dosage for AKF-PD administrated was from 1071 mg/kg to 6000 mg/kg. The dosage difference between two adjacent doses was 1:0.65 (a dose vs the next lower dose). All animals were maintained under a regular condition. Acute toxic reaction and death within 14 days of post drug treatment were recorded. Autopsy was performed on all dead animals and visual examination was performed on all organs.
LD50 was calculated according to Bliss method. […] The results of Table 15 are very close to those reported in the literature: 997.7 mg/kg (U.S. Pat. No. 5,310,562) and 1112 mg/kg(Pharmaceutical Care and Research 5:4823(2005)).

Row | SMILES | Optical Density at 570 nm ([1]; 100 μg/ml, 12 h) | Optical Density at 570 nm ([1]; 100 μg/ml, 24 h) | Optical Density at 570 nm ([1]; 100 μg/ml, 48 h) | Optical Density at 570 nm ([1]; 500 μg/ml, 12 h) | Optical Density at 570 nm ([1]; 500 μg/ml, 24 h) | Optical Density at 570 nm ([1]; 500 μg/ml, 48 h) | Optical Density at 570 nm ([2]; 100 μg/ml, 24 h) | Optical Density at 570 nm ([2]; 100 μg/ml, 48 h) | Optical Density at 570 nm ([2]; 100 μg/ml, 72 h) | Optical Density at 570 nm ([2]; 500 μg/ml, 24 h) | Optical Density at 570 nm ([2]; 500 μg/ml, 48 h) | Optical Density at 570 nm ([2]; 500 μg/ml, 72 h) | Optical Density at 570 nm ([2]; 1000 μg/ml, 24 h) | Optical Density at 570 nm ([2]; 1000 μg/ml, 48 h) | Optical Density at 570 nm ([2]; 1000 μg/ml, 72 h) | order of inhibitory effect [2] | Optical Density at 570 nm ([3]; 100 μg/ml, 12 h) | Optical Density at 570 nm ([3]; 100 μg/ml, 24 h) | Optical Density at 570 nm ([3]; 100 μg/ml, 48 h) | Optical Density at 570 nm ([3]; 500 μg/ml, 12 h) | other results
1 | Cc1ccc(=O)n(-c2cccc(F)c2)c1 [AKF-PD, 1-(3′-fluorophenyl)-5-methyl-2(1H)-pyridone] | 0.344 ± 0.004 | 0.583 ± 0.004 | 0.807 ± 0.007 | 0.344 ± 0.005 | 0.573 ± 0.004 | 0.758 ± 0.010 | 0.5907 ± 0.0199 | 0.5850 ± 0.0134 | 0.5080 ± 0.0145 | 0.5799 ± 0.1086 | 0.5185 ± 0.0331 | 0.4314 ± 0.0264 | 0.5638 ± 0.0142 | 0.4298 ± 0.0258 | 0.3511 ± 0.0215 | AKF-PD>AKF-BR>pirfenidone | 0.328 ± 0.010 | 0.426 ± 0.006 | 0.620 ± 0.018 | 0.326 ± 0.003 | Optical Density at 570 nm ([1]; 1000 μg/ml, 12 h): 0.343 ± 0.004; Optical Density at 570 nm ([1]; 1000 μg/ml, 24 h): 0.553 ± 0.004; Optical Density at 570 nm ([1]; 1000 μg/ml, 48 h): 0.704 ± 0.003; Optical Density at 570 nm ([1]; 2500 μg/ml, 12 h): 0.346 ± 0.005; Optical Density at 570 nm ([1]; 2500 μg/ml, 24 h): 0.502 ± 0.003; Optical Density at 570 nm ([1]; 2500 μg/ml, 48 h): 0.646 ± 0.006; anti-proliferative potency compared with PIRFENIDONE ([1]; human peritoneal mesothelial cells): more potent anti-proliferative agent than PIRFENIDONE; inhibition of proliferation of kidney fibroblast [2]: capable of inhibiting the proliferation of kidney fibroblast; Optical Density at 570 nm ([3]; 500 μg/ml, 24 h): 0.408 ± 0.009; Optical Density at 570 nm ([3]; 500 μg/ml, 48 h): 0.580 ± 0.014; Optical Density at 570 nm ([3]; 1000 μg/ml, 12 h): 0.332 ± 0.006; Optical Density at 570 nm ([3]; 1000 μg/ml, 24 h): 0.392 ± 0.008; Optical Density at 570 nm ([3]; 1000 μg/ml, 48 h): 0.538 ± 0.009; Optical Density at 570 nm ([3]; 2500 μg/ml, 12 h): 0.325 ± 0.008; Optical Density at 570 nm ([3]; 2500 μg/ml, 24 h): 0.377 ± 0.013; Optical Density at 570 nm ([3]; 2500 μg/ml, 48 h): 0.514 ± 0.005; anti-proliferative potency compared with PIRFENIDONE ([3]; rat myocardiac fibroblasts): more potent anti-proliferative agent than PIRFENIDONE; Histological Score for Lung Tissue, Mean [4]: 2.0000; LD50 at 14 days ([5]; LD50): 2980 mg/kg; LD50 at 14 days ([5]; LD50 95% confidence limit): 2400 to 3700 mg/kg
2 | Cc1ccc(=O)n(-c2ccccc2)c1 [PFD, 5-methyl-1-phenyl-2(1H)-pyridone, reference compound] | 0.346 ± 0.006 | 0.584 ± 0.005 | 0.810 ± 0.006 | 0.343 ± 0.004 | 0.577 ± 0.003 | 0.766 ± 0.004 | 0.5911 ± 0.1002 | 0.5844 ± 0.0171 | 0.5264 ± 0.1530 | 0.5877 ± 0.1204 | 0.5450 ± 0.0196 | 0.4798 ± 0.2355 | 0.5798 ± 0.0149 | 0.5272 ± 0.0229 | 0.4269 ± 0.0302 | AKF-PD>AKF-BR>pirfenidone | 0.330 ± 0.014 | 0.429 ± 0.009 | 0.654 ± 0.007*^+ | 0.329 ± 0.013 | Optical Density at 570 nm ([3]; 500 μg/ml, 24 h): 0.411 ± 0.006; Optical Density at 570 nm ([3]; 500 μg/ml, 48 h): 0.612 ± 0.014***^++; Optical Density at 570 nm ([3]; 1000 μg/ml, 12 h): 0.331 ± 0.009; Optical Density at 570 nm ([3]; 1000 μg/ml, 24 h): 0.403 ± 0.010**^+; Optical Density at 570 nm ([3]; 1000 μg/ml, 48 h): 0.597 ± 0.013***^+++; Optical Density at 570 nm ([3]; 2500 μg/ml, 12 h): 0.329 ± 0.008; Optical Density at 570 nm ([3]; 2500 μg/ml, 24 h): 0.392 ± 0.009**^+; Optical Density at 570 nm ([3]; 2500 μg/ml, 48 h): 0.566 ± 0.027; Histological Score for Lung Tissue, Mean [4]: 2.0909; LD50 at 14 days ([5]; LD50): 955 mg/kg; LD50 at 14 days ([5]; LD50 95% confidence limit): 551 to 1660 mg/kg
